We go through eight molecules from patent US20260022143A1, “Cyclic Peptide Inhibitors of IL-23” (JANSSEN PHARMACEUTICA NV, priority 2022, published 2026).

Data set [1] in a line: Exposed Polar Surface Area (EPSA). As to conditions: SFC on Chirex 3014 column; sample 1 mM DMSO stock; read-out: EPSA. The data set is classed as physicochemical. In short, it runs like this:
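SFC retention on a Chirex 3014 (S)-valine/(R)-1-(α-naphthyl)ethylamine column, 35 °C, CO2 with MeOH (20 mM ammonium formate) gradient 5–60% at 20%/min, 14 MPa outlet. Retention times converted to EPSA (Å^2) via linear calibration with 8 standards; samples from 1 mM DMSO stock, run in duplicate.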

The target of data set [2] is T1, interleukin-23 (IL-23) receptor (Homo sapiens, UniProt Q5VWK5).
T1 construct: Cryopreserved peripheral blood mononuclear cells (PBMCs) from healthy donors were thawed; endogenous in cells; host or cells: cryopreserved PBMCs from healthy donors, expanded 4 days on anti-CD3 with IL-1
T1 sequence (Q5VWK5 24-629): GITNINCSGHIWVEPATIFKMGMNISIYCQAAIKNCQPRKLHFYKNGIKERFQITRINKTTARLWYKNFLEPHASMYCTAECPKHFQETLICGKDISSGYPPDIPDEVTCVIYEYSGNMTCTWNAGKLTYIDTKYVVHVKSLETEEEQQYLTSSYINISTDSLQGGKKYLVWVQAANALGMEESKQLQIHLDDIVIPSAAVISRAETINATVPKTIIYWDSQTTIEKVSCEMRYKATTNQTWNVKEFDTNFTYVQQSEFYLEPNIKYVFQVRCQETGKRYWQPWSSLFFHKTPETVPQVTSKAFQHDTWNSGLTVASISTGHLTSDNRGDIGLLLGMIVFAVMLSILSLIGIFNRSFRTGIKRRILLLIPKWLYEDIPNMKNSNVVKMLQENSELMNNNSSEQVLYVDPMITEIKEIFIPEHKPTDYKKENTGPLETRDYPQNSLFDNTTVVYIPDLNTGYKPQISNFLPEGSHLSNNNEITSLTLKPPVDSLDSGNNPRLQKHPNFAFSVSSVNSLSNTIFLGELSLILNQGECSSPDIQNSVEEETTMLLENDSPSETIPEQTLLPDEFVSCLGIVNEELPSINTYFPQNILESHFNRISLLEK
Kind of data set: PBMC pSTAT3 assay. The class given is cell-based. On the procedure: Cryopreserved peripheral blood mononuclear cells (PBMCs) from healthy donors were thawed and washed twice in ImmunoCult-XF T cell expansion medium (XF-TCEM) supplemented with CTL anti-aggregate wash. The cells were counted, resuspended at 2×10^5 cells per mL XF-TCEM supplemented with penicillin/streptomycin and 100 ng/mL IL-1 (BioLegend, 579404), and cultured in tissue culture flasks coated with anti-CD3 (eBioscience, 16-0037-85 or BD Pharmingen, 555329) at 37° C. in 5% CO2. On day 4 of culture, PBMCs were collected, washed twice in RPMI-1640 supplemented with 0.1% BSA (RPMI-BSA), and incubated in RPMI-BSA in upright tissue culture flasks for 4 hours at 37° C. in 5% CO2. Following this ‘starvation,’ a total of 6×10^4 cells in […] RPMI-BSA was transferred into each well of a 384-well plate pre-spotted with peptide or DMSO. The cells were incubated for 30 minutes prior to the addition of IL-23 at a final concentration of 5 ng/mL. The cells were stimulated with cytokine for 30 minutes at 37° C. in 5% CO2, transferred onto ice for 10 minutes, and lysed. Cell lysates were stored at −80° C. until phosphorylated STAT3 was measured using the phospho-STAT panel kit (Meso Scale Discovery, K15202D).

The target in a further data set is T2, IL-23R (Homo sapiens, UniProt Q5VWK5).
T2 construct: host or cells: HEK293
T2 sequence (Q5VWK5 24-629): T1 sequence (Q5VWK5 24-629)
Put plainly: IL23R Reporter Assay. The class given is cell-based. The note with it: HEK293 cells containing IL-23R, IL-12RP1 and STAT-inducible firefly luciferase reporter; 10 ng/mL IL-23 (EC90); 5 h at 37° C.; read-out: IL23R Reporter Assay.

Where a name gives a salt, the structure may show the parent alone. Positions of bridges follow the written chain, without caps; N, C: chain ends. Non-standard residues stand in square brackets, D forms with d. Residues, ends and D or L forms follow the SMILES beside them. *: point of attachment. Me3N+(CH2)2O(CH2)2O(CH2)2CO = C[N+](C)(C)CCOCCOCCC(=O)*; Trp(7-Me) = Cc1cccc2c(C[C@H](N)C(=O)O)c[nH]c12; Hexanoyl(6-NMe3+) = C[N+](C)(C)CCCCCC(=O)*; dLys(Me3) = C[N+](C)(C)CCCC[C@@H](N)C(=O)O; Dab(NMeAc) = CC(=O)N(C)CC[C@H](N)C(=O)O; 2Nal = N[C@@H](Cc1ccc2ccccc2c1)C(=O)O; AEF = NCCOc1ccc(C[C@H](N)C(=O)O)cc1; 3Pal = N[C@@H](Cc1cccnc1)C(=O)O; Lys(Me) = CNCCCC[C@H](N)C(=O)O; Pen = CC(C)(S)[C@H](N)C(=O)O; Thp = NC1(C(=O)O)CCOCC1; X3 = C[N+](C)(C)CCCCC*; Me2NCH2CH2 = CN(C)CC*; Tfa = O=C(C(F)(F)F)*; Sar = CNCC(=O)O

With `CC(=O)NCCCC[C@@H]1NC(=O)[C@H](Cc2c[nH]c3c(C)cccc23)NC(=O)[C@H]([C@@H](C)O)NC(=O)[C@H](CC(N)=O)NC(=O)[C@@H](NC(=O)CCOCCOCC[N+](C)(C)C)C(C)(C)SSC(C)(C)[C@@H](C(=O)N[C@@H](Cc2ccc(OCCN)cc2)C(=O)N[C@@H](Cc2ccc3ccccc3c2)C(=O)NC2(C(=O)N[C@@H](CCC(=O)O)C(=O)N[C@@H](CC(N)=O)C(=O)N[C@@H](Cc3cccnc3)C(=O)N(C)CC(N)=O)CCOCC2)NC1=O` [compound 82, cPEG3aCO-Pen(3)-N-T-7MeW-K(Ac)-Pen(3)-AEF-2Nal-THP-E-N-3Pya-Sar-CONH2] ({Me3N+(CH2)2O(CH2)2O(CH2)2CO}-[Pen]NT[Trp(7-Me)]K(Ac)[Pen][AEF][2Nal][Thp]EN[3Pal][Sar]-NH2; disulfide 1-6), the EPSA in data set [1] worked out at 171 A^2. The molecule further came in with an IC50 in data set [2] of 0.0057 nM.
On the same counts, the results for `CC(=O)N[C@H](CCCC[N+](C)(C)C)C(=O)N[C@@H]1C(=O)N[C@@H](CC(=O)N(C)C)C(=O)N[C@@H]([C@@H](C)O)C(=O)N[C@@H](Cc2c[nH]c3c(C)cccc23)C(=O)N[C@@H](CCCCN(C)C(C)=O)C(=O)N[C@H](C(=O)N[C@@H](Cc2ccc(OCCN(C)C)cc2)C(=O)N[C@@H](Cc2ccc3ccccc3c2)C(=O)NC2(C(=O)N[C@@H](CCC(=O)O)C(=O)N[C@@H](CC(N)=O)C(=O)N[C@@H](Cc3cccnc3)C(=O)N(C)CC(=O)N(C)C)CCOCC2)C(C)(C)SSC1(C)C` [compound 105, MeCO-k(Me)3-Pen(3)-N(N(Me)2)-T-7MeW-K(NMeAc)-Pen(3)-AEF(N(Me)2)-2Nal-THP-E-N-3Pya-Sar-CON(Me)2] (Ac-[dLys(Me3)][Pen]D(NMe2)T[Trp(7-Me)][Lys(Me)](Ac)[Pen]Y(Me2NCH2CH2)[2Nal][Thp]EN[3Pal][Sar]-NMe2; disulfide 2-7) are 155 A^2 and 0.0075 nM.
On the same counts, the results for `CC(=O)N(C)CCCC[C@@H]1NC(=O)[C@H](Cc2c[nH]c3c(C)cccc23)NC(=O)[C@H]([C@@H](C)O)NC(=O)[C@H](CC(=O)N(C)C)NC(=O)[C@@H](NC(=O)C(F)(F)F)C(C)(C)SSC(C)(C)[C@@H](C(=O)N[C@@H](Cc2ccc(OCCN(C)C)cc2)C(=O)N[C@@H](Cc2ccc3ccccc3c2)C(=O)NC2(C(=O)N[C@@H](CCC(=O)O)C(=O)N[C@@H](CC(N)=O)C(=O)N[C@@H](Cc3cccnc3)C(=O)N(C)CC(=O)N(C)C)CCOCC2)NC1=O` [compound 104, CF3CO-Pen(3)-N(N(Me)2)-T-7MeW-K(NMeAc)-Pen(3)-AEF(N(Me)2)-2Nal-THP-E-N-3Pya-Sar-CON(Me)2] (Tfa-[Pen]D(NMe2)T[Trp(7-Me)][Lys(Me)](Ac)[Pen]Y(Me2NCH2CH2)[2Nal][Thp]EN[3Pal][Sar]-NMe2; disulfide 1-6) are 150 A^2 and 0.0032 nM.
In the case of `CC(=O)N(C)CCCC[C@@H]1NC(=O)[C@H](Cc2c[nH]c3c(C)cccc23)NC(=O)[C@H]([C@@H](C)O)NC(=O)[C@H](CC(=O)N(C)C)NC(=O)[C@@H](NC(=O)C(F)(F)F)C(C)(C)SSC(C)(C)[C@@H](C(=O)N[C@@H](Cc2ccc(OCCN)cc2)C(=O)N[C@@H](Cc2ccc3ccccc3c2)C(=O)NC2(C(=O)N[C@@H](CCCCN(C)C(C)=O)C(=O)N[C@@H](CC(N)=O)C(=O)N[C@@H](Cc3cccnc3)C(=O)N(C)CC(=O)N(C)C)CCOCC2)NC1=O` [compound 68, CF3CO-Pen(3)-N(N(Me)2)-T-7MeW-K(NMeAc)-Pen(3)-AEF-2Nal-THP-K(NMeAc)-N-3Pya-Sar-CON(Me)2] (Tfa-[Pen]D(NMe2)T[Trp(7-Me)][Lys(Me)](Ac)[Pen][AEF][2Nal][Thp][Lys(Me)](Ac)N[3Pal][Sar]-NMe2; disulfide 1-6), in data set [1], the EPSA stood at 148 A^2. In data set [2], the IC50 stood at 0.012 nM.
Regarding `Cc1cccc2c(C[C@@H]3NC(=O)[C@H]([C@@H](C)O)NC(=O)[C@H](CC(=O)N(C)C)NC(=O)[C@@H](NC(=O)CCCCC[N+](C)(C)C)C(C)(C)SSC(C)(C)[C@@H](C(=O)N[C@@H](Cc4ccc(OCCN(C)C)cc4)C(=O)N[C@@H](Cc4ccc5ccccc5c4)C(=O)NC4(C(=O)N[C@@H](CCC(=O)O)C(=O)N[C@@H](CC(N)=O)C(=O)N[C@@H](Cc5cccnc5)C(=O)N(C)CC(=O)N(C)C)CCOCC4)NC(=O)[C@H](CCC(=O)N(C)C)NC3=O)c[nH]c12` [compound 97, 5cpaCO-Pen(3)-N(N(Me)2)-T-7MeW-Q(N(Me)2)-Pen(3)-AEF(N(Me)2)-2Nal-THP-E-N-3Pya-Sar-CON(Me)2] ({Hexanoyl(6-NMe3+)}-[Pen]D(NMe2)T[Trp(7-Me)]E(NMe2)[Pen]Y(Me2NCH2CH2)[2Nal][Thp]EN[3Pal][Sar]-NMe2; disulfide 1-6), the IC50 at IL-23R was 5.8 nM. Also, the EPSA in data set [1] was 152 A^2.
For `CC(=O)NCCCC[C@@H]1NC(=O)[C@H](Cc2c[nH]c3c(C)cccc23)NC(=O)[C@H]([C@@H](C)O)NC(=O)[C@H](CC(=O)N(C)C)NC(=O)[C@@H](NC(=O)C(F)(F)F)C(C)(C)SSC(C)(C)[C@@H](C(=O)N[C@@H](Cc2ccc(OCCN)cc2)C(=O)N[C@@H](Cc2ccc3ccccc3c2)C(=O)NC2(C(=O)N[C@@H](CCCCNC(C)=O)C(=O)N[C@@H](CC(N)=O)C(=O)N[C@@H](Cc3cccnc3)C(=O)N(C)CC(N)=O)CCOCC2)NC1=O` [compound 52, CF3CO-Pen(3)-N(N(Me)2)-T-7MeW-K(Ac)-Pen(3)-AEF-2Nal-THP-K(Ac)-N-3Pya-Sar-CONH2] (Tfa-[Pen]D(NMe2)T[Trp(7-Me)]K(Ac)[Pen][AEF][2Nal][Thp]K(Ac)N[3Pal][Sar]-NH2; disulfide 1-6 (inferred)), the IC50 at IL-23R was found to be 4.6 nM. In data set [1], the EPSA was determined as 158 A^2.
On the same counts, the results for `CC(=O)N(C)CC[C@H](NC(=O)C1(NC(=O)[C@H](Cc2ccc3ccccc3c2)NC(=O)[C@H](Cc2ccc(OCCN)cc2)NC(=O)[C@H]2NC(=O)[C@H](CCC(=O)N(C)C)NC(=O)[C@H](Cc3c[nH]c4c(C)cccc34)NC(=O)[C@H]([C@@H](C)O)NC(=O)[C@H](CC(N)=O)NC(=O)[C@@H](NC(=O)CCOCCOCC[N+](C)(C)C)C(C)(C)SSC2(C)C)CCOCC1)C(=O)N[C@@H](CC(N)=O)C(=O)N[C@@H](Cc1cccnc1)C(=O)N(C)CC(N)=O` [compound 178, cPEG3aCO-Pen(3)-N-T-7MeW-Q(N(Me)2)-Pen(3)-AEF-2Nal-THP-Dab(NMeAc)-N-3Pya-Sar-CONH2] ({Me3N+(CH2)2O(CH2)2O(CH2)2CO}-[Pen]NT[Trp(7-Me)]E(NMe2)[Pen][AEF][2Nal][Thp][Dab(NMeAc)]N[3Pal][Sar]-NH2; disulfide 1-6) are 2 nM and 154 A^2.
Turning to `CC(=O)N(C)CCCC[C@@H]1NC(=O)[C@H](Cc2c[nH]c3c(C)cccc23)NC(=O)[C@H]([C@@H](C)O)NC(=O)[C@H](CC(=O)N(C)C)NC(=O)[C@@H](NC(=O)CCOCCOCC[N+](C)(C)C)C(C)(C)SSC(C)(C)[C@@H](C(=O)N[C@@H](Cc2ccc(OCCCCC[N+](C)(C)C)cc2)C(=O)N[C@@H](Cc2ccccc2)C(=O)NC2(C(=O)N[C@@H](CCCCN(C)C(C)=O)C(=O)N[C@@H](CC(N)=O)C(=O)N[C@@H](Cc3cccnc3)C(=O)N(C)CC(=O)N(C)C)CCOCC2)NC1=O` [compound 498, cPEG3aCO-Pen(3)-N(N(Me)2)-T-7MeW-K(NMeAc)-Pen(3)-TMApF-F-THP-K(NMeAc)-N-3Pya-Sar-CON(Me)2] ({Me3N+(CH2)2O(CH2)2O(CH2)2CO}-[Pen]D(NMe2)T[Trp(7-Me)][Lys(Me)](Ac)[Pen]Y(X3)F[Thp][Lys(Me)](Ac)N[3Pal][Sar]-NMe2; disulfide 1-6), at IL-23R, the IC50 was 27 nM. The EPSA in data set [1] was 162 A^2.
